Test results as given in patent US10519140B2, “Indolin-2-one derivatives” (Hoffmann-La Roche Inc., priority 2015, dated 2019).

The compounds below were run against T1, mouse ENT-1 transporter (Mus musculus, UniProt Q9JIM1) (assay: Adenosine transport activity (ENT1, [3H]-adenosine uptake inhibition)). Conditions: stable cells expressing mouse ENT-1; [2,8-3H]-adenosine 6 nM, 20 min.
T1 construct: expressed in transfected cells
T1 sequence (Q9JIM1 1-460): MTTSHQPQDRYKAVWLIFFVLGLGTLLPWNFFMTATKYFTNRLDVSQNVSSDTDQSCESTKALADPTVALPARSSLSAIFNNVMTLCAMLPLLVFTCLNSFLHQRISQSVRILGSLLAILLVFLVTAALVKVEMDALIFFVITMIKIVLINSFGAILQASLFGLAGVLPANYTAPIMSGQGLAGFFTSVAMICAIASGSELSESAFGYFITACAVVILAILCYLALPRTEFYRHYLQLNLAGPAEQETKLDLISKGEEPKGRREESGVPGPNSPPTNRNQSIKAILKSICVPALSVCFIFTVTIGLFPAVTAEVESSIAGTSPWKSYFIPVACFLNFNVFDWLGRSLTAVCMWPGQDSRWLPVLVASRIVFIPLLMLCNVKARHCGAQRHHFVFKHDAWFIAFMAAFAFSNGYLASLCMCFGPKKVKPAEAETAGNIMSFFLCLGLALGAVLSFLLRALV
Assay type: cell-based
Protocol: To measure adenosine transport activity of ENT-1 mammalian cells, stable cells expressing the mouse ENT-1 transporter were plated on day 1 in 96-well culture plates at the density of 60,000 cells/well, in complete DMEM/F12 medium supplemented with glutamax, 10% FBS and 10 μg/ml puromycin. On day 2, the medium was aspirated and the cells were washed twice with uptake buffer (10 mM Hepes-Tris, pH 7.4 containing 150 mM NaCl, 1 mM CaCl2, 2.5 mM KCl, 2.5 mM MgSO4, 10 mM D-glucose) (UB). For inhibition experiments, cells were then incubated at RT with various concentrations of compounds with 1% DMSO final. Non-specific uptake was defined in the presence of 10 μM S-(4-Nitrobenzyl)-6-thioinosine (NBTI, Sigma Cat #N2255). A solution containing [2,8-^3H]-adenosine 6 nM (40 Ci/mmol, American Radiolabeled chemicals Inc, Cat #ART 0287A) was then immediately added to the wells. The plates were then incubated for 20 min with gentle shaking and the reaction was stopped by aspiration of the mixture and washing (three times) with ice-cold UB. The cells were lysed by the addition of scintillation liquid, shaken 3 hours and the radioactivity in the cells was estimated using a microplates scintillation counter (TopCount NXT, Packard).

| SMILES | IC50 [µM] |
| --- | --- |
| Cc1ncc(-c2ccc3c(c2)N(c2cncc(N4C(=O)OC[C@@H]4C(C)C)n2)C(=O)C3(C)C)cn1 [Example 22, (S)-3-(6-(3,3-Dimethyl-6-(2-methylpyrimidin-5-yl)-2-oxoindolin-1-yl)pyrazin-2-yl)-4-isopropyloxazolidin-2-one] | 0.387 |
| Cc1ncc(-c2ccc3c(c2)N(c2cncc(N4C[C@H]5C[C@@H](C4)O5)n2)C(=O)C3(C)C)cn1 [Example 16, 1-(6-((1R,5S)-6-Oxa-3-azabicyclo[3.1.1]heptan-3-yl)pyrazin-2-yl)-3,3-dimethyl-6-(2-methylpyrimidin-5-yl)indolin-2-one] | 0.0887 |
| COCCN(C)c1cncc(N2C(=O)C(C)(C)c3ccc(-c4cnc(C)nc4)cc32)n1 [Example 12, 1-(6-((2-Methoxyethyl)(methyl)amino)pyrazin-2-yl)-3,3-dimethyl-6-(2-methylpyrimidin-5-yl)indolin-2-one] | 0.0545 |
| Cc1ncc(-c2ccc3c(c2)N(c2nccc(N4CCOCC4)n2)C(=O)C3(C)C)cn1 [Example 24, 3,3-Dimethyl-6-(2-methylpyrimidin-5-yl)-1-(4-morpholinopyrimidin-2-yl)indolin-2-one] | 0.321 |
| Cc1ncc(-c2ccc3c(c2)N(c2cnc(N4[C@@H]5COC[C@H]4C5)cn2)C(=O)C3(C)C)cn1 [Example 51, 1-(5-((1R,5S)-3-Oxa-6-azabicyclo[3.1.1]heptan-6-yl)pyrazin-2-yl)-3,3-dimethyl-6-(2-methylpyrimidin-5-yl)indolin-2-one] | 0.227 |
| Cc1ncc(-c2ccc3c(c2)N(c2cnc4c(c2)NC(=O)CO4)C(=O)C3(C)C)cn1 [Example 38, 7-(3,3-Dimethyl-6-(2-methylpyrimidin-5-yl)-2-oxoindolin-1-yl)-1H-pyrido[2,3-b][1,4]oxazin-2(3H)-one] | 0.0614 |
| Cc1ncc(-c2ccc3c(c2)N(c2ccc4c(c2)N(C)C(=O)C4(C)C)C(=O)C3(C)C)cn1 [Example 41, 1′,3,3,3′,3′-Pentamethyl-6-(2-methylpyrimidin-5-yl)-[1,6′-biindoline]-2,2′-dione] | 0.114 |
| Cc1ncc(-c2ccc3c(c2)N(c2ccc(C)c(N4CCOC4=O)n2)C(=O)C3(C)C)cn1 [Example 32, 3-(6-(3,3-Dimethyl-6-(2-methylpyrimidin-5-yl)-2-oxoindolin-1-yl)-3-methylpyridin-2-yl)oxazolidin-2-one] | 0.0324 |
| COCCNc1cncc(N2C(=O)C(C)(C)c3ccc(-c4cnc(C)nc4)cc32)n1 [Example 8, 1-[6-(2-Methoxyethylamino)pyrazin-2-yl]-3,3-dimethyl-6-(2-methylpyrimidin-5-yl)indol-2-one] | 0.0876 |
| Cc1ncc(-c2ccc3c(c2)N(c2cncc(N)c2)C(=O)C3(C)C)cn1 [Example 25, 1-(5-Aminopyridin-3-yl)-3,3-dimethyl-6-(2-methylpyrimidin-5-yl)indolin-2-one] | 0.466 |
| Cc1ncc(-c2ccc3c(c2)N(c2cncc(N4C(=O)OC[C@H]4C(C)C)n2)C(=O)C3(C)C)cn1 [Example 21, (R)-3-(6-(3,3-Dimethyl-6-(2-methylpyrimidin-5-yl)-2-oxoindolin-1-yl)pyrazin-2-yl)-4-isopropyloxazolidin-2-one] | 0.238 |
| Cc1ncc(-c2ccc3c(c2)N(c2cncc(N4[C@@H]5COC[C@H]4C5)n2)C(=O)C3(C)C)cn1 [Example 13, 1-(6-((1R,5S)-3-Oxa-6-azabicyclo[3.1.1]heptan-6-yl)pyrazin-2-yl)-3,3-dimethyl-6-(2-methylpyrimidin-5-yl)indolin-2-one] | 0.137 |
| COCCNc1nc(N2C(=O)C(C)(C)c3ccc(-c4cnc(C)nc4)cc32)cnc1C [Example 19, 1-(6-((2-Methoxyethyl)amino)-5-methylpyrazin-2-yl)-3,3-dimethyl-6-(2-methylpyrimidin-5-yl)indolin-2-one] | 0.11 |
| CC(=O)Nc1nc(N2C(=O)C(C)(C)c3ccc(-c4cnc(C)nc4)cc32)ccc1C [Example 30, N-(6-(3,3-Dimethyl-6-(2-methylpyrimidin-5-yl)-2-oxoindolin-1-yl)-3-methylpyridin-2-yl)acetamide] | 0.346 |
| Cc1ncc(-c2ccc3c(c2)N(c2cccc(N4CCOC4=O)n2)C(=O)C3(C)C)cn1 [Example 28, 3-(6-(3,3-Dimethyl-6-(2-methylpyrimidin-5-yl)-2-oxoindolin-1-yl)pyridin-2-yl)oxazolidin-2-one] | 0.005 |
| Cc1ncc(-c2ccc3c(c2)N(c2ccc4cnn(C)c4c2)C(=O)C3(C)C)cn1 [Example 60, 3,3-Dimethyl-1-(1-methyl-1H-indazol-6-yl)-6-(2-methylpyrimidin-5-yl)indolin-2-one] | 0.0377 |
| Cc1ncc(-c2ccc3c(c2)N(c2ccc4c(C)nn(C)c4n2)C(=O)C3(C)C)cn1 [Example 61, 1-(1,3-Dimethyl-1H-pyrazolo[3,4-b]pyridin-6-yl)-3,3-dimethyl-6-(2-methylpyrimidin-5-yl)indolin-2-one] | 0.202 |
| Cc1ncc(-c2ccc3c(c2)N(c2cncc4[nH]ccc24)C(=O)C3(C)C)cn1 [Example 34, 3,3-Dimethyl-6-(2-methylpyrimidin-5-yl)-1-(1H-pyrrolo[2,3-c]pyridin-4-yl)indolin-2-one] | 0.838 |
| Cc1ncc(-c2ccc3c(c2)N(c2cncc(N4CCCC4)n2)C(=O)C3(C)C)cn1 [Example 4, 3,3-Dimethyl-6-(2-methylpyrimidin-5-yl)-1-(6-(pyrrolidin-1-yl)pyrazin-2-yl)indolin-2-one] | 0.253 |
| Cc1ncc(-c2ccc3c(c2)N(c2cncc(N4CCC(C)(O)CC4)n2)C(=O)C3(C)C)cn1 [Example 11, 1-(6-(4-Hydroxy-4-methylpiperidin-1-yl)pyrazin-2-yl)-3,3-dimethyl-6-(2-methylpyrimidin-5-yl)indolin-2-one] | 0.0338 |
| Cc1ncc(-c2ccc3c(c2)N(c2ccc4ccn(C)c4c2)C(=O)C3(C)C)cn1 [Example 62, 3,3-Dimethyl-1-(1-methyl-1H-indol-6-yl)-6-(2-methylpyrimidin-5-yl)indolin-2-one] | 0.428 |
| Cc1ncc(-c2ccc3c(c2)N(c2ccc(C)c(N)n2)C(=O)C3(C)C)cn1 [Example 29, 1-(6-Amino-5-methylpyridin-2-yl)-3,3-dimethyl-6-(2-methylpyrimidin-5-yl)indolin-2-one] | 0.126 |
| Cc1ncc(-c2ccc3c(c2)N(c2cncc(N4CCS(=O)(=O)CC4)n2)C(=O)C3(C)C)cn1 [Example 10, 1-(6-(1,1-Dioxidothiomorpholino)pyrazin-2-yl)-3,3-dimethyl-6-(2-methylpyrimidin-5-yl)indolin-2-one] | 0.0296 |
| Cc1ncc(-c2ccc3c(c2)N(c2ccc4c(n2)NC(=O)C4(C)C)C(=O)C3(C)C)cn1 [Example 37, 6-(3,3-Dimethyl-6-(2-methylpyrimidin-5-yl)-2-oxoindolin-1-yl)-3,3-dimethyl-1H-pyrrolo[2,3-b]pyridin-2(3H)-one] | 0.0067 |
| Cc1ncc(-c2ccc3c(c2)N(c2cncc(N4CCC45COC5)n2)C(=O)C3(C)C)cn1 [Example 14, 1-(6-(6-Oxa-1-azaspiro[3.3]heptan-1-yl)pyrazin-2-yl)-3,3-dimethyl-6-(2-methylpyrimidin-5-yl)indolin-2-one] | 0.11 |
| Cc1ncc(-c2ccc3c(c2)N(c2cncc(NC4COC4)n2)C(=O)C3(C)C)cn1 [Example 17, 3,3-Dimethyl-6-(2-methylpyrimidin-5-yl)-1-(6-(oxetan-3-ylamino)pyrazin-2-yl)indolin-2-one] | 0.244 |
| Cc1ncc(-c2ccc3c(c2)N(c2cncc(N4CCCS4(=O)=O)n2)C(=O)C3(C)C)cn1 [Example 57, 1-(6-(1,1-Dioxidoisothiazolidin-2-yl)pyrazin-2-yl)-3,3-dimethyl-6-(2-methylpyrimidin-5-yl)indolin-2-one] | 0.0608 |
| Cc1ncc(-c2ccc3c(c2)N(c2ccc4oc(C)nc4n2)C(=O)C3(C)C)cn1 [Example 45, 3,3-Dimethyl-1-(2-methyloxazolo[4,5-b]pyridin-5-yl)-6-(2-methylpyrimidin-5-yl)indolin-2-one] | 0.593 |
| Cc1ncc(-c2ccc3c(c2)N(c2cc4c(cn2)C(C)(C)C(=O)N4C2CC2)C(=O)C3(C)C)cn1 [Example 40, 1-Cyclopropyl-6-(3,3-dimethyl-6-(2-methylpyrimidin-5-yl)-2-oxoindolin-1-yl)-3,3-dimethyl-1H-pyrrolo [3,2-c]pyridin-2(3H)-one] | 0.493 |
| Cc1ncc(-c2ccc3c(c2)N(c2cnc(NCCO)cn2)C(=O)C3(C)C)cn1 [Example 52, 1-(5-((2-Hydroxyethyl)amino)pyrazin-2-yl)-3,3-dimethyl-6-(2-methylpyrimidin-5-yl)indolin-2-one] | 0.239 |
